Assay results from paper PMC12930396, “Positive modulators of N-methyl-D-aspartate receptor: structure–activity relationship study on steroidal C-17 and C-20 oxime ethers” (RSC Advances, 2026).

Assays:
GluN1/GluN2B receptors = target: T1, GluN1/GluN2B receptors (Rattus norvegicus, UniProt P35439+Q00960); assay: Patch-clamp: modulation of glutamate-induced currents of recombinant GluN1/GluN2B receptors expressed in HEK293 cells; format: cell-based
T1 construct: expressed in transfected cells; host or cells: HEK293 cells (ATCC No. CRL-1573)
T1 sequence (Q00960 27-1482, other chains not shown): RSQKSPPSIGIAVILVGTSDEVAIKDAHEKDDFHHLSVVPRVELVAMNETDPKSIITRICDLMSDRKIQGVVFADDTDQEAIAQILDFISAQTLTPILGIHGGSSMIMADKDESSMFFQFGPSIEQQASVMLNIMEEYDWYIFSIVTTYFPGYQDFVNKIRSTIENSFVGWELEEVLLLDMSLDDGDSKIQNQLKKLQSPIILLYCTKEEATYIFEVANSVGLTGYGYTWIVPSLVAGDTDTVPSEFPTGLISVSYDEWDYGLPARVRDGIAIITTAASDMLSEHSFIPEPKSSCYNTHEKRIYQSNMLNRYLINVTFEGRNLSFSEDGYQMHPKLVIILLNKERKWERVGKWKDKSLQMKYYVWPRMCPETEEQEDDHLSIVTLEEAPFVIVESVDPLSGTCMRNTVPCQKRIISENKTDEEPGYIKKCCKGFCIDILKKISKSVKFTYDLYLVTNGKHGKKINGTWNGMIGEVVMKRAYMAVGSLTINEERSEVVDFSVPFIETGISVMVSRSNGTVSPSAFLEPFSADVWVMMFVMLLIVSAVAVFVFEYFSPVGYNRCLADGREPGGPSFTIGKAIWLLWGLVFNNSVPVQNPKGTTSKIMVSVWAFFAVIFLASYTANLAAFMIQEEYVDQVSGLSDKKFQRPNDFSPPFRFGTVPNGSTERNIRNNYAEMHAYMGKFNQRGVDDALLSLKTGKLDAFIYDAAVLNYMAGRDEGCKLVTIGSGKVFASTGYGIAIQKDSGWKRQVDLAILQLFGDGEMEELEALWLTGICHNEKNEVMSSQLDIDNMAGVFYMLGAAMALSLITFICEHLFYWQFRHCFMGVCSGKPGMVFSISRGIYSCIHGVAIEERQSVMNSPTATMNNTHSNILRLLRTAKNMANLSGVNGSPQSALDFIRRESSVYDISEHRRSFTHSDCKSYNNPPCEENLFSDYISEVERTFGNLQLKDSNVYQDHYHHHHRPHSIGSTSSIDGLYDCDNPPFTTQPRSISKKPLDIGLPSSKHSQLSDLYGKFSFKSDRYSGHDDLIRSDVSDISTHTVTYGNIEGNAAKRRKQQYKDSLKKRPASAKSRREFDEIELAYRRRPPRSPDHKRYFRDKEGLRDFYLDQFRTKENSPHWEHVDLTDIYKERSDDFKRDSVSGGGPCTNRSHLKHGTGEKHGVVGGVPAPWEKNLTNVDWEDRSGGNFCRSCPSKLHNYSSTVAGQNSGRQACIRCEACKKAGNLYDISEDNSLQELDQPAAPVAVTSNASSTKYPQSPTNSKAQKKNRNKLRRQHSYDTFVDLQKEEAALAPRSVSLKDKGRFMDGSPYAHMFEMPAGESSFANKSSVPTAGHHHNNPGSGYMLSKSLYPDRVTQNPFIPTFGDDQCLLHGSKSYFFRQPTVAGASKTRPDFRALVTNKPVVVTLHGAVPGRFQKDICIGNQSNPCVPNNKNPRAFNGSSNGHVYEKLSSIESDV
Experimental: To investigate the effect of compounds 11–23 on the activity of NMDARs, electrophysiological measurements were performed on HEK293 cells that were co-transfected with cDNAs containing genes encoding for the rat GluN1-1a and GluN2B subunits. The degree of modulation (E; potentiation/inhibition) for the newly synthesized compounds was determined using the following formula: [drawing 1] where Ie is the value of the current amplitude during glutamate and compound coapplication, and Ia is the current amplitude value for glutamate application. […] The results are presented as mean ± standard error of the mean (SEM), with n equal to the number of independent measurements. One-way analysis of variance (ANOVA) was used for multiple comparisons (unless otherwise stated, a value of P ≤ 0.05 was used for the determination of significance).
We have evaluated the relationship between oxime derivatives 11–23 and their modulatory effect on recombinant GluN1/GluN2B receptors. Due to the […] effect of neurosteroid-based PAMs at NMDARs[20,44]
HEK293 cells (American Type Culture Collection, ATCC No. CRL-1573, Rockville, MD, USA) were cultured in Opti-MEM I (Invitrogen, Carlsbad, CA, USA) supplemented with 5% fetal bovine serum (FBS; PAN Biotech, Aidenbach, Germany) at 37 °C in 5% CO2. 24 h before transfection, HEK293 cells were plated in 24-well plates at a density of 2 × 10^5 cells per well. The next day, the cells were transfected with cDNA encoding rat GluN1-1a (GluN1; GenBank accession number U08261)[56] and GluN2B (GenBank accession number M91562)[57] subunits (in the pCI-neo expression vector), along with green fluorescent protein (GFP; in the pQBI 25 vector, Takara, Tokyo, Japan). Briefly, equal amounts (200 ng) of cDNAs encoding GluN1-1a, GluN2B, and GFP were mixed with 0.6 µl of Matra-A reagent (IBA, Gottingen, Germany) in 50 µL of Opti-MEM I and added to confluent HEK293 cells cultured in 24-well plates. After trypsinization, the cells were resuspended in Opti-MEM I containing 1% FBS, supplemented with 20 mM MgCl2, 1 mM D,L-2-amino-5-phosphonovaleric acid, 3 mM kynurenic acid, and 1 µM ketamine, and plated on 30 mm glass coverslips coated with collagen and poly-L-lysine. Transfected cells were identified by GFP epifluorescence. Electrophysiology experiments were performed 24–48 h after transfection.
Whole-cell current recordings, voltage-clamped at a holding potential of −60 mV, were performed at room temperature using a patch-clamp amplifier (Axopatch 200B; Molecular Devices, Sunnyvale, CA, USA) after capacitance and series resistance (<10 MΩ) compensation (80–90%). NMDAR current responses were low-pass filtered at 2 kHz, digitally sampled at 5 kHz, and analysed using pClamp software (version 10.6; Molecular Devices). Patch pipettes (3–5 MΩ), pulled from borosilicate glass, were filled with an intracellular solution (ICS) containing (in mM): 15 CsCl, 10 BAPTA, 3 MgCl2, 1 CaCl2, 120 gluconic acid, 10 HEPES, and 2 ATP-Mg salt (pH adjusted to 7.2 with CsOH). The extracellular solution (ECS) contained (in mM): 160 NaCl, 2.5 KCl, 0.2 EDTA, 10 glucose, 10 HEPES, and 0.7 CaCl2 (pH adjusted to 7.3 with NaOH). NMDAR responses were induced by 1 µM glutamate and 30 µM glycine. 1% DMSO was present in all control and testing solutions. Solution applications were performed using a microprocessor-controlled multibarrel fast-perfusion system with a solution exchange rate around the cells of ∼10 ms.[58]

in vitro = conditions: pH 7.4
Experimental: Permeability was quantified using permeability coefficients (Pe) and mass retention, the latter representing the proportion of compound retained in the membrane.
Permeation experiments were conducted in polystyrene 96-well filter plates with PVDF membrane pre-coated with structured layers of phospholipids (Corning Gentest™) according to the manufacturer's instructions. Briefly, the plate was warmed to room temperature, and meanwhile, the solutions of the compounds were diluted from 10 mM DMSO stocks to TRIS–HCl buffer pH 7.4 to reach a 100 µM final concentration. The DMSO concentration in the samples was 1%. Then, 300 µL of these solutions were transferred into the donor (receiver) plate wells, and 200 µL of the (TRIS) buffer was added to the acceptor (filter) plate wells. The filter plate and receiver plate were assembled and incubated for 5 h on an orbital shaker (300 rpm). After this, the concentration of the tested substances in both the donor and acceptor compartments was determined with use of LC/MS. Liquid chromatography was performed using an ExionLC AD pump and autosampler from Sciex (Framingham, MA, USA). […] The mobile phase flow rate was 300 µL min^−1. The column Synergi Fusion-RP from Phenomenex (Torrance, CA, USA) was used and was kept at 40 °C during the analysis.

For `CCON=C(C)C1CCC2C3CC=C4CC(OC(=O)CCCC(=O)O)CCC4(C)C3CCC12C` (stereo not drawn) [Compound 12, 20-Oxo-pregn-5-en-3β-yl hemiglutarate O-ethyloxime], the “Efficacy relative to PES” value (GluN1/GluN2B receptors; Emax compared with PES) was “over 6 fold”, the “h ± SEM (apparent Hill coefficient)” value (GluN1/GluN2B receptors; concentration-response fit, mean ± SEM) was 1.7 ± 0.3 and the EC50 (GluN1/GluN2B receptors; half-maximal potentiation of currents evoked by 1 µM glutamate, HEK293, mean ± SEM) was 8.7 ± 1.1 µM. For the same compound, the Emax (GluN1/GluN2B receptors; maximal potentiation of currents evoked by 1 µM glutamate and 30 µM glycine, HEK293, mean ± SEM) was 673 ± 121%, the “PAMPA permeability Retention (mass retention)” value (in vitro; 5 h, 100 µM) was 97% and the Papp at 5 h, 100 µM (in vitro; PAMPA) was 3.89 ×10⁻⁶ cm/s.
